Data published in publication PMC5405701 (ChemMedChem, 2017).

Legend:
[1] = molecular target: ERα (Homo sapiens, UniProt P03372); assay: cell-based; type: cell-based
[2] = tested on: MCF-7 breast cancer cells; assay: antiproliferative activity, MTT assay, MCF-7; conditions: Homo sapiens, MCF7, 72 h, read-out: MCF-7 Inhibition (%)
[3] = molecular target: ERβ (Homo sapiens, UniProt Q92731); assay: cell-based; type: cell-based
[4] = molecular target: T1, human ERα ligand binding domain (LBD) (Homo sapiens, UniProt P03372); assay: competitive fluorometric; conditions: relative to parent 2a (compared to 2a and 4a)
T1 sequence (P03372 311-547 limits assumed): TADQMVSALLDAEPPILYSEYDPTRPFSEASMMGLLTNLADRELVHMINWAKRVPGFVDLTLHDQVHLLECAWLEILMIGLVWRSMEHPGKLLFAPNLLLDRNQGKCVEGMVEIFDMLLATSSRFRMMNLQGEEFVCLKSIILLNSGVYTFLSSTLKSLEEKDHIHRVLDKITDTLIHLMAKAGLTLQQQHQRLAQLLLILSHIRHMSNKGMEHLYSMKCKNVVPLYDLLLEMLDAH

[5] = molecular target: human ERβ ligand binding domain (LBD) (Homo sapiens, UniProt Q92731); assay: competitive fluorometric; conditions: ratio of RBA ERβ to RBA ERα
human ERβ ligand binding domain (LBD), sequence (Q92731 264-498 limits assumed): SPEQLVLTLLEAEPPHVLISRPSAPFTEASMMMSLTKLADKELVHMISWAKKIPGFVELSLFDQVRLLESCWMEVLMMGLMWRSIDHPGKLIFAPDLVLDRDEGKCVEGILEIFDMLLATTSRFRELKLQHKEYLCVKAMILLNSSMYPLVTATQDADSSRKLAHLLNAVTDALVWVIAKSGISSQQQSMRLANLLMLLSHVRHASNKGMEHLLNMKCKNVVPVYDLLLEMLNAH

ERβ, sequence (Q92731 whole entry, the tested form may be a part): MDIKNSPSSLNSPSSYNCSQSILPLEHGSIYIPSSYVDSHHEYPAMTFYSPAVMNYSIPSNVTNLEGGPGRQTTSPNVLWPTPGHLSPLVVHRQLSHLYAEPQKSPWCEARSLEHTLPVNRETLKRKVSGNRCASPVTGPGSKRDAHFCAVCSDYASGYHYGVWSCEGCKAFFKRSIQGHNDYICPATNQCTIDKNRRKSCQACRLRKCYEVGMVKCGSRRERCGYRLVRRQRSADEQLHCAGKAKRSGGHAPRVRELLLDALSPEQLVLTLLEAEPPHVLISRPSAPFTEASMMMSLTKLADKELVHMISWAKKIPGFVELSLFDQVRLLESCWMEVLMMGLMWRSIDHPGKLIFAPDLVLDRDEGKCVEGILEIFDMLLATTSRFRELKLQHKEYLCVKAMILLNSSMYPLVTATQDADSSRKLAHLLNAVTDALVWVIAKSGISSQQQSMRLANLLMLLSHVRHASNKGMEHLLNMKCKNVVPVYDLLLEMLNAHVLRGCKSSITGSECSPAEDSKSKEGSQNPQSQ
ERα, sequence (P03372 whole entry): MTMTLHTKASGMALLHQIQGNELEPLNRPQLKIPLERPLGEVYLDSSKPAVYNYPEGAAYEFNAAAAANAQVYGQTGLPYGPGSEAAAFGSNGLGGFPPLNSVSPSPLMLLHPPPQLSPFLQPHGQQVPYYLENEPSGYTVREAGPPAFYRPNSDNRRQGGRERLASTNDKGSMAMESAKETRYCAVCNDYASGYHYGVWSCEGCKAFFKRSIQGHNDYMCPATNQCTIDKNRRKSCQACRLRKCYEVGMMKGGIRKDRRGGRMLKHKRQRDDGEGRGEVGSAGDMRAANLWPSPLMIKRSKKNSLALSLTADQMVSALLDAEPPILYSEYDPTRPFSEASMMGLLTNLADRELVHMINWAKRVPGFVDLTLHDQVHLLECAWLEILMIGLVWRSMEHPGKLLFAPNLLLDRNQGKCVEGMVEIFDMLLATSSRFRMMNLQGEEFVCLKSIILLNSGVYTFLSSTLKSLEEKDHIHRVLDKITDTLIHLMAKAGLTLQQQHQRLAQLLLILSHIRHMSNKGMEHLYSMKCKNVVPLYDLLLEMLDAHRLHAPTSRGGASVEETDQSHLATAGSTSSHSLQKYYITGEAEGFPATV

Structure (SMILES): Cc1cc(O)ccc1-c1cc(Br)c(-c2ccc(O)cc2C)[se]1 [Compound 6b, 3-Bromo-2,5-bis(4-hydroxy-2-methylphenyl)selenophene]
- EC50 [1]: 790 nM
- Agonist Mode ERα Eff (%E2) ([1]; maximal response as percentage of response to 10^−8 M E2, HEK293T): 21 ± 5 %E2
- inhibition at 10 µM [2]: 2.5%
- EC50 [3]: 9 nM
- Emax ([3]; HEK-293T, 24 h, read-out: Agonist Mode ERβ Eff (%E2)): 69 ± 9%
- transcriptional activity profile on ERβ ([3]; reporter gene assay, HEK293T): antagonist
- fold increase in binding affinity for ERα over 2a [4]: more than 23 fold
- β/α [5]: 0.74
